The text below walks through data of patent US8686002B2, “Heterocyclic compounds and their use as binding partners for 5-HT5 receptors” (AbbVie Deutschland GmbH & Co. KG, priority 2005, dated 2014).

Where a name gives a salt, the structure may show the parent alone.

Sequence of 5-HT5A (P47898 whole entry): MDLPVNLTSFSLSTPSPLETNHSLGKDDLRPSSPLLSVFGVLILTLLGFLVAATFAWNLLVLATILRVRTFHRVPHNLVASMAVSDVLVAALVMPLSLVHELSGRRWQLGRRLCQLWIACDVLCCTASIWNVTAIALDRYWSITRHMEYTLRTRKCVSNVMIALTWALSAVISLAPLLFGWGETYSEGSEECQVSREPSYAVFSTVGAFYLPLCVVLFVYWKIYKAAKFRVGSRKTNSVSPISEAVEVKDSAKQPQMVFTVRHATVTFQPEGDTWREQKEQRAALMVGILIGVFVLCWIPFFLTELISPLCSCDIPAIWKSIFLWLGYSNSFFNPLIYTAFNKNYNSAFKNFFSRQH

The experiment addresses 5-HT5A (Homo sapiens, UniProt P47898). In words: Affinity of selected compounds for 5-HT5A (Ki). It counts as binding. On the procedure: In both assays, different concentrations of the test substances are used and the Ki and IC50 values are determined.
For the compound “3-(2-Methoxybenzyl)-N-(1-naphthylmethyl)-3,4-dihydroquinazolin-2-amine hydrochloride [Example 99]”, the Ki (usually a dissociation constant, usually derived from enzyme kinetics or from competition with a known ligand) was less than 10000 nM.

`COc1ccccc1Cc1cc2ccccc2nc1N` [Example 1, 3-(2-Methoxybenzyl)quinolin-2-amine] came in with an inhibitory constant (Ki) of less than 300 nM. The same measure for `COc1cccc(O)c1Cc1cc2ccccc2nc1N` [Example 2, 2-[(2-Aminoquinolin-3-yl)methyl]-3-methoxyphenol]: less than 300 nM; for `COc1cccc(OC)c1Cc1cc2ccccc2nc1N` [Example 3, 3-(2,6-Dimethoxybenzyl)quinolin-2-amine]: less than 300 nM. `CCOc1cccc(OC)c1Cc1cc2ccccc2nc1N` [Example 4, 3-(2-Ethoxy-6-methoxybenzyl)quinolin-2-amine] registered an inhibitory constant (Ki) of less than 300 nM. The same measure for `COc1cccc(OC(C)C)c1Cc1cc2ccccc2nc1N` [Example 5, 3-(2-Isopropoxy-6-methoxybenzyl)quinolin-2-amine]: less than 300 nM.

The compound `COc1ccc2cc(Cc3ccccc3OC)c(N)nc2c1` [Example 6, 7-Methoxy-3-(2-methoxybenzyl)quinolin-2-amine] returned an inhibition constant (Ki) of less than 300 nM. For the compound `COc1ccc2nc(N)c(Cc3ccccc3OC)cc2c1` [Example 7, 6-Methoxy-3-(2-methoxybenzyl)quinolin-2-amine], the Ki is less than 300 nM. The same measure for `COc1cccc(OC)c1Cc1cc2cc(Cl)ccc2nc1N` [Example 9, 6-Chloro-3-(2,6-dimethoxybenzyl)quinolin-2-amine]: less than 300 nM. With `COc1ccccc1Cc1cc2cc(Cl)ccc2nc1N` [Example 11] the figure was less than 300 nM; with `COc1cccc(OC)c1Cc1cc2cc3c(cc2nc1N)OCO3` [Example 12], less than 300 nM. With `COc1cc2cc(Cc3c(OC)cccc3OC)c(N)nc2cc1OC` [Example 13, 3-(2,6-Dimethoxybenzyl)-6,7-dimethoxy-quinolin-2-amine] the figure was less than 300 nM. As to `COc1ccccc1Cc1cc2cc3c(cc2nc1N)OCO3` [Example 14, 7-(2-Methoxybenzyl)[1.3]dioxolo[4.5-g]quinolin-6-amine], the Ki is less than 300 nM. With `COc1ccccc1Cc1cc2ccc(Cl)cc2nc1N` [Example 15, 7-Chloro-3-(2-methoxybenzyl)quinolin-2-amine] the figure was less than 300 nM. With `COc1ccccc1Cc1cc2cc(OC)c(OC)cc2nc1N` [Example 16, 6,7-Dimethoxy-3-(2-methoxybenzyl)quinolin-2-amine] the figure was less than 300 nM. The same measure for `COc1cccc(F)c1Cc1cc2cc3c(cc2nc1N)OCO3` [Example 17, 7-(2-Fluoro-6-methoxybenzyl)[1.3]dioxolo[4.5-g]quinolin-6-amine]: less than 300 nM; for `COc1ccccc1Cc1cc2cc(F)ccc2nc1N` [Example 18, 6-Fluoro-3-(2-methoxybenzyl)quinolin-2-amine]: less than 300 nM; for `COc1ccccc1Cc1cc2c(Cl)cccc2nc1N` [Example 19, 5-Chloro-3-(2-methoxybenzyl)quinolin-2-amine]: less than 300 nM.

In turn, `COc1cccc(OC)c1Cc1cc2cccnc2nc1N` [Example 21, 3-(2,6-Dimethoxybenzyl)-1,8-naphthyridin-2-amine] returned an inhibition constant (Ki) of less than 10000 nM.

Compound `COc1cccc(OC)c1Cc1cc2cnccc2nc1N` [Example 22, 3-(2,6-Dimethoxybenzyl)-1,6-naphthyridin-2-amine] came in with a Ki of less than 300 nM.

The compound `COc1cccc(OC)c1Cc1cc2cc(F)ccc2nc1N` [Example 23, 3-(2,6-Dimethoxybenzyl)-6-fluoroquinolin-2-amine] registered a Ki of less than 300 nM. Compound `COc1cccc(F)c1Cc1cc2cc(F)ccc2nc1N` [Example 24, 6-Fluoro-3-(2-fluoro-6-methoxybenzyl)quinolin-2-amine] gave a Ki of less than 300 nM. Compound `Nc1nc2ccccc2cc1Cc1ccccc1O` [Example 25, 2-[(2-Aminoquinolin-3-yl)methyl]phenol] returned a Ki of less than 300 nM.

`COc1cccc(F)c1Cc1cc2ccc(Cl)cc2nc1N` [Example 26, 7-Chloro-3-(2-fluoro-6-methoxybenzyl)quinolin-2-amine] had an inhibition constant (Ki) of less than 300 nM. Consider `COc1cccc(Cl)c1Cc1cc2ccc(Cl)cc2nc1N` [Example 27, 7-Chloro-3-(2-chloro-6-methoxybenzyl)quinolin-2-amine], for which the Ki was less than 300 nM. `COc1ccccc1Cc1cc2ccc(N(C)C)cc2nc1N` [Example 28, 3-(2-Methoxybenzyl)-N^7,N^7-dimethylquinolin-2,7-diamine] yielded a Ki of less than 300 nM. With `COc1cccc(F)c1Cc1cc2ccccc2nc1N` [Example 29, 3-(2-Fluoro-6-methoxybenzyl)quinolin-2-amine] the figure was less than 300 nM; with `COc1cccc(Cl)c1Cc1cc2ccccc2nc1N` [Example 30, 3-(2-Chloro-6-methoxybenzyl)quinolin-2-amine], less than 300 nM; with `CCOc1ccc2nc(N)c(Cc3ccccc3OC)cc2c1` [Example 31, 6-Ethoxy-3-(2-methoxybenzyl)quinolin-2-amine], less than 300 nM. The same measure for `CCOc1ccc2nc(N)c(Cc3c(OC)cccc3OC)cc2c1` [Example 32, 6-Ethoxy-3-(2,6-dimethoxybenzyl)quinolin-2-amine]: less than 300 nM; for `COc1ccccc1Cc1cc2cnccc2nc1N` [Example 33, 3-(2-Methoxybenzyl)-1,6-naphthyridin-2-amine]: less than 300 nM; for `COc1ccccc1Cc1cc2cccnc2nc1N` [Example 34, 3-(2-Methoxybenzyl)-1,8-naphthyridin-2-amine]: less than 10000 nM. The same measure for `COc1cccc(F)c1Cc1cc2cnccc2nc1N` [Example 35, 3-(2-Fluoro-6-methoxybenzyl)-1,6-naphthyridin-2-amine]: less than 300 nM.

In turn, `COc1ccccc1Cc1cc2ccncc2nc1N` [Example 36, 3-(2-Methoxybenzyl)-1,7-naphthyridin-2-amine] registered a Ki of less than 300 nM. The same measure for `COc1cccc(OC)c1Cc1cc2ccncc2nc1N` [Example 37, 3-(2,6-Dimethoxybenzyl)-1,7-naphthyridin-2-amine]: less than 300 nM.

`COc1ccccc1Cc1cc2ncccc2nc1N` [Example 38, 3-(2-Methoxybenzyl)-1,5-naphthyridin-2-amine] came in with an inhibition constant (Ki) of less than 300 nM. With `COc1ccccc1Cc1cc2ccc(F)cc2nc1N` [Example 39, 7-Fluoro-3-(2-methoxybenzyl)quinolin-2-amine] the figure was less than 300 nM. With `COc1cccc(Cl)c1Cc1cc2cc3c(cc2nc1N)OCO3` [Example 40, 7-(2-Chloro-6-methoxybenzyl)[1.3]dioxolo[4,5-g]quinolin-76-amine] the figure was less than 300 nM; with `COc1ccccc1Cc1cc2cc(F)c(F)cc2nc1N` [Example 41, 6,7-Difluoro-3-(2-methoxybenzyl)quinolin-2-amine], less than 300 nM.

On to `COc1cccc(F)c1Cc1cc2ccc(F)cc2nc1N` [Example 42, 7-Fluoro-3-(2-fluoro-6-methoxybenzyl)quinolin-2-amine], for which the Ki is less than 300 nM. The same measure for `COCCOc1ccc2nc(N)c(Cc3ccccc3OC)cc2c1` [Example 43, 3-(2-Methoxybenzyl)-6-(2-methoxyethoxy)quinolin-2-amine]: less than 300 nM; for `COc1ccccc1Cc1cc2cc(N3CCOCC3)ccc2nc1N` [Example 44, 3-(2-Methoxybenzyl)-6-morpholin-4-ylquinolin-2-amine]: less than 300 nM; for `COc1cccc(F)c1Cc1cc2cc(N3CCOCC3)ccc2nc1N` [Example 45, 3-(2-Methoxy-6-fluorobenzyl)-6-morpholin-4-ylquinolin-2-amine]: less than 300 nM. Consider `COc1cccc(OC)c1Cc1cc2ncccc2nc1N` [Example 46, 3-(2,6-Dimethoxybenzyl)-1,5-naphthyridin-2-amine], for which the inhibitory constant (Ki) is less than 300 nM. The same measure for `COc1cccc(F)c1Cc1cc2ncccc2nc1N` [Example 47, 3-(2-Fluoro-6-methoxybenzyl)-1,5-naphthyridin-2-amine]: less than 300 nM; for `COc1ccccc1Cc1cc2cc(N3CCN(C)CC3)ccc2nc1N` [Example 48, 3-(2-Methoxybenzyl)-6-(4-methylpiperazin-1-yl)quinolin-2-amine bisfumarate]: less than 300 nM; for `COc1cccc(F)c1Cc1cc2cc(N3CCN(C)CC3)ccc2nc1N` [Example 49, 3-(2-Fluoro-6-methoxybenzyl)-6-(4-methylpiperazin-1-yl)quinolin-2-aminomonofumarate]: less than 300 nM. `COc1ccccc1Cc1cc2cc(N3CCOCC3)c(F)cc2nc1N` [Example 50, 7-Fluoro-3-(2-methoxybenzyl)-6-morpholin-4-ylquinolin-2-amine] came in with a Ki of less than 300 nM. With `COc1ccccc1Cc1cc2cccc(OC)c2nc1N` [Example 51, 8-Methoxy-3-(2-methoxybenzyl)quinolin-2-amine] the figure was less than 300 nM. With `COc1cccc(OC)c1Cc1cc2cccc(OC)c2nc1N` [Example 52, 3-(2,6-Dimethoxybenzyl)-8-methoxyquinolin-2-amine hydrochloride] the figure was less than 300 nM; with `Nc1nc2ccccc2cc1Cc1ccccc1OC(F)(F)F` [Example 53, 3-[2-(Trifluoromethoxy)benzyl]quinolin-2-amine], less than 300 nM. Take `CC(C)Oc1ccccc1Cc1cc2ccccc2nc1N` [Example 54, 3-(2-Isopropoxybenzyl)quinolin-2-amine hydrochloride]: the Ki is less than 300 nM. The same measure for `CCOc1ccccc1Cc1cc2ccccc2nc1N` [Example 55, 3-(2-Ethoxybenzyl)quinolin-2-amine hydrochloride]: less than 300 nM. As for `CC(C)Oc1cccc(F)c1Cc1cc2ccccc2nc1N` [Example 56, 3-(2-Fluoro-6-isopropoxybenzyl)quinolin-2-amine hydrochloride], the Ki is less than 300 nM. The same measure for `COc1cccc(Cl)c1Cc1cc2ncccc2nc1N` [Example 58, 3-(2-Chloro-6-methoxybenzyl)-1,5-naphthyridin-2-amine]: less than 300 nM; for `CCOc1cccc(F)c1Cc1cc2ccccc2nc1N` [Example 59, 3-(2-Ethoxy-6-fluorobenzyl)quinolin-2-amine hydrochloride]: less than 300 nM.
